Test results published in EP2440567B1, “SUBSTITUTED 16,17-ANNELLATED STEROID COMPOUNDS FOR USE IN WOMEN'S HEALTHCARE” (priority 2009, dated 2010).

Assays:
[1] = test system: pregnant rats; assay: Embryofetal toxicity study in pregnant rats; format: in vivo, rat
[2] = test system: ovulation; assay: Ovulation inhibition in intact cycling female rats; format: in vivo
[3] = test system: vaginal tissue; assay: Allen-Doisy test; format: in vivo
[4] = test system: endometrium; assay: 4-week phase I study, endometrial biopsies histopathology; format: in vivo; conditions: female human volunteers; biopsies on day 29; exposure via oral 10 mg daily Org 41621
[5] = test system: circulating levels of LH and FSH; assay: 4-week multiple dose study in ovariectomized female rats; format: in vivo, rat
[6] = test system: estrogen receptors in the CNS; assay: Lordosis model (facilitation of female sexual behaviour); format: in vivo
[7] = test system: bone; assay: AOST BMD (bone mineral density); format: in vivo

| SMILES | major fetal abnormalities (ribs, humerus and scapula) ([1]; pregnant rats, oral gavage, 0.09 mg/kg) | major fetal abnormalities (ribs, humerus and scapula) ([1]; pregnant rats, oral gavage, 0.15 mg/kg) | Ovulation Inhibition (rat) MAD p.o. [2] | minor defects, incidence of wavy ribs ([1]; pregnant rats, oral gavage, 0.1 mg/kg) | body weight gain of the dams ([1]; pregnant rats, oral gavage, 0.1 mg/kg/day up to and including 10 mg/kg/day) | effects (fetal defects) ([1]; pregnant rats, oral gavage, 0.3 mg/kg, based on a total of 13 fetuses) | major defects (fetuses) ([1]; pregnant rats, oral gavage, treated groups) | teratogenicity in the rat ([1]; preliminary embryofetal development study, up to a dose of 0.3 mg/kg) | Allen-Doisy (rat) MAD p.o. [3] | Histopathology scores of endometrial biopsies [4] | signs of hyperplasia (endometrium) [4] | suppression of circulating levels of LH and FSH ([5]; 4-week multiple dose, oral and subcutaneous application in gelatine/mannitol) | behaviour on vaginal tissue, cholesterol metabolism and bone (bone mineral density, circulating osteocalcin) ([5]; same series of studies) | Lordosis (rat) MAD p.o. [6] | AOST BMD (rat) MAD p.o. [7] |
| --- | --- | --- | --- | --- | --- | --- | --- | --- | --- | --- | --- | --- | --- | --- | --- |
| CCC[C@@H]1Cc2cc(O)ccc2[C@H]2CC[C@@]3(C)[C@@H](C[C@H]4CC[C@H](O)C[C@]43O)[C@H]12 [Org 41621, (7α,16β,17α,22β)-7-propyl-16,24-cyclo-19,21-dinorchola-1,3,5(10)-triene-3,17,22-triol, reference compound] | 3/273 | 11/216 | – | – | – | – | – | – | – | – | – | – | – | – | – |
| CCC[C@@H]1Cc2cc(O)ccc2[C@H]2CC[C@@]3(C)[C@@H](C[C@H]4CCC(=O)C[C@]43O)[C@H]12 [Compound 10, (7α,16β,17α)-3,17-dihydroxy-7-propyl-16,24-cyclo-19,21-dinorchola-1,3,5(10)-trien-22-one] | – | – | 0.10 mg/kg.day | 4/153 | significant reduction in body weight gain | No effects | No major defects | no evidence of teratogenicity | 0.15 mg/kg.day | mostly atrophic or inactive endometrium with some subjects showing conversion to secretory (P-type) endometrium | no signs of hyperplasia | effectively suppress | behaves as an estrogen receptor agonist | 0.14 mg/kg.day | 0.12 mg/kg.day |
| C#C[C@]1(O)CC[C@H]2[C@@H]3CCc4cc(O)ccc4[C@H]3CC[C@@]21C [EE, Ethynyl-Estradiol, reference compound] | – | – | 0.022 mg/kg.day | – | – | – | – | – | 0.016 mg/kg.day | – | – | – | – | 0.035 mg/kg.day | 0.020 mg/kg.day |
